Data on 56 compounds can be found in patent US7148353B2 (priority 2003, dated 2006).

Molecules are shown by their SMILES. Where only a bound is given, the exact number is not on record here.

For the first experiment, the target named is peripheral benzodiazepine receptors (Rattus norvegicus, UniProt P16257). Briefly: biochemical. The experiment is classed as binding. Particulars: IC50 (nM) peripheral, Table 1a. How it is done: Compounds of the invention were assessed for their binding to the benzodiazepine receptor by the test of Speth et al. [Life Sci. 24, 351 (1979)] for central benzodiazepine receptors and LeFur et al. [Life Sci. 33, 449 (1983)] for peripheral receptors. The compounds were tested first at 1.0E-09, 1.0E-07 and 1.0E-05 M in single determination. […] The specific ligand binding to the receptor is defined as the difference between the total binding and the nonspecific binding determined in the presence of an excess of unlabelled ligand. In each experiment, the respective reference compound was tested concurrently with the test compounds in order to assess the assay suitability. It was tested at several concentrations (for IC50 value determination), and the data were compared with historical values. The assay was rendered valid if suitability criteria were met.
peripheral benzodiazepine receptors, sequence (P16257 whole entry): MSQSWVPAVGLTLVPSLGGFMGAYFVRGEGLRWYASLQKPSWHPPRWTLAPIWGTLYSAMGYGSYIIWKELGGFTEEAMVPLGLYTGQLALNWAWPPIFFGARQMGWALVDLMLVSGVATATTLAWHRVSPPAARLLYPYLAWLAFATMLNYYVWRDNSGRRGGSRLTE
On to `Cc1ccc(-c2nc3ccc(C)cn3c2CC(=O)c2ccc(Cl)cc2)cc1` [Example 3d, 1-(4-Chloro-phenyl)-2-(6-methyl-2-p-tolyl-imidazo[1,2-a]pyridin-3-yl)-ethanone], for which the IC50 is 594 nM.

As to `Cc1ccc(-c2nc3ccc(C)cn3c2CC(=O)c2ccccc2)cc1` [Example 4d, 2-(6-Methyl-2-p-tolyl-imidazo[1,2-a]pyridin-3-yl)-1-phenyl-ethanone], the midpoint of inhibition, the IC50, lay at 386 nM.

The experiment is the same for the next values; noted with them: Table 1a; read-out: IC50 (nM) peripheral.
For `Cc1ccc(-c2nc3ccc(C)cn3c2CC(=O)C2CCCC2)cc1`, the IC50 worked out at 310 nM.

`Cc1ccc(-c2nc3ccc(C)cn3c2CC(=O)C(C)C)cc1`: the 50% inhibitory concentration (IC50) is 820 nM.

As to `Cc1ccc(-c2nc3ccc(C)cn3c2CC(=O)C2CC2)cc1`, the IC50 was determined as 560 nM.

Regarding `Cc1ccc(-c2nc3ccc(C)cn3c2CC(=O)c2ccsc2)cc1`, the IC50 was found to be 240 nM.

Consider `Cc1ccc(-c2nc3ccc(C)cn3c2CC(=O)c2nccs2)cc1`, for which the IC50 is 1600 nM.

For `Cc1ccc(-c2nc3ccc(C)cn3c2CC(=O)c2ccco2)cc1`, the IC50 stood at 1600 nM.

Consider `Cc1ccc(-c2nc3ccc(C)cn3c2CC(=O)c2cncnc2)cc1`, for which the IC50 was 3400 nM.

In the case of `Cc1ccc(-c2nc3ccc(C)cn3c2CC(=O)c2sc(C)nc2C)cc1`, the IC50 came out at 2000 nM.

With `Cc1ccc(-c2nc3ccc(C)cn3c2CC(=O)c2ccoc2)cc1`, the IC50 came out at 400 nM.

For `Cc1ccc(-c2nc3ccc(C)cn3c2CC(=O)c2c(C)nn(C)c2C)cc1`, the IC50 was over 10000 nM.

As to `Cc1ccc(-c2nc3ccc(C)cn3c2CC(=O)c2nn(-c3ccccc3)nc2C)cc1`, the IC50 worked out at 7600 nM.

With `Cc1ccc(-c2nc3ccc(C)cn3c2CC(=O)c2c(C)nn(-c3ccccc3)c2C)cc1`, the concentration for half-maximal inhibition (IC50) is over 10000 nM.

Consider `Cc1ccc(-c2nc3ccc(C)cn3c2CC(=O)c2c(C)nc3cc(C)ccn23)cc1`, for which the IC50 was 210 nM.

Consider `Cc1ccc(-c2nc3ccc(C)cn3c2CC(=O)c2cc3ccccc3s2)cc1`, for which the IC50 came out at 220 nM.

For the compound `Cc1ccc(-c2nc3ccc(C)cn3c2CC(=O)c2cc3c(C)nn(C)c3s2)cc1`, the IC50 worked out at 2100 nM.

`Cc1ccc(-c2nc3ccc(C)cn3c2CC(=O)Cc2cccs2)cc1`: the IC50 stood at 59 nM.

On to `Cc1ccc(-c2nc3ccc(C)cn3c2CC(=O)C2COc3ccccc3O2)cc1` (stereo not shown), for which the concentration for half-maximal inhibition (IC50) was determined as 32 nM.

In the case of `Cc1ccc(-c2nc3ccc(C)cn3c2CC(=O)c2snnc2C)cc1`, the IC50 turned out to be 320 nM.

For `Cc1ccc(-c2nc3ccc(C)cn3c2CC(=O)c2sccc2Cl)cc1`, the concentration for half-maximal inhibition (IC50) was found to be 840 nM.

Consider `Cc1ccc(-c2nc3ccc(C)cn3c2CC(=O)c2cncn2C)cc1`, for which the IC50 turned out to be 3100 nM.

On to `Cc1ccc(-c2nc3ccc(C)cn3c2CC(=O)c2c(C)noc2C)cc1`, for which the IC50 is 1200 nM.

`Cc1ccc(-c2nc3ccc(C)cn3c2CC(=O)c2scc(S(C)(=O)=O)c2Cl)cc1`: the IC50 is 730 nM.

As for `Cc1ccc(-c2nc3ccc(C)cn3c2CC(=O)c2cc(C)nn2C)cc1`, the IC50 was found to be 810 nM.

On to `Cc1ccc(-c2nc3ccc(C)cn3c2CC(=O)c2cc(C)on2)cc1`, for which the IC50 was 560 nM.

As for `Cc1ccc(-c2nc3ccc(C)cn3c2CC(=O)c2cn(C)cn2)cc1`, the IC50 was over 10000 nM.

As for `Cc1ccc(-c2nc3ccc(C)cn3c2CC(=O)c2csc(-c3cccs3)n2)cc1`, the IC50 was over 10000 nM.

Turning to `Cc1ccc(-c2nc3ccc(C)cn3c2CC(=O)c2sccc2C)cc1`, the IC50 was 230 nM.

As for `Cc1ccc(-c2nc3ccc(C)cn3c2CC(=O)c2nsc(Cl)c2Cl)cc1`, the IC50 turned out to be 1700 nM.

With `Cc1ccc(-c2nc3ccc(C)cn3c2CC(=O)c2ccc(C)s2)cc1`, the IC50 came out at 1800 nM.

As to `Cc1ccc(-c2nc3ccc(C)cn3c2CC(=O)c2cc(C)n(C)n2)cc1`, the IC50 stood at 1300 nM.

In the case of `Cc1ccc(-c2nc3ccc(C)cn3c2CC(=O)c2nccn2C)cc1`, the IC50 is over 10000 nM.

On to `CCn1nc(C)c(Br)c1C(=O)Cc1c(-c2ccc(C)cc2)nc2ccc(C)cn12`, for which the IC50 was 2100 nM.

Turning to `Cc1ccc(-c2nc3ccc(C)cn3c2CC(=O)c2nnn(C)c2C)cc1`, the IC50 was over 10000 nM.

With `CSc1ccc(C(=O)Cc2c(-c3ccc(C)cc3)nc3ccc(C)cn23)s1`, the IC50 turned out to be 6000 nM.

Consider `Cc1ccc(-c2nc3ccc(C)cn3c2CC(=O)c2cn(-c3cccc(C)n3)cn2)cc1`, for which the IC50 worked out at 6600 nM.

Consider `Cc1ccc(-c2nc3ccc(C)cn3c2CC(=O)CCc2ccccc2)cc1`, for which the IC50 is 290 nM.

With `CC(=O)Cc1c(-c2ccc(C)cc2)nc2ccc(C)cn12` [Example 2d, 1-(6-Methyl-2-p-tolyl-imidazo[1,2-a]pyridin-3-yl)-propan-2-one], the IC50 came out at 231 nM.

Turning to `CCCCCC(=O)Cc1c(-c2ccc(C)cc2)nc2ccc(C)cn12` [Example 5d, 1-(6-Methyl-2-p-tolyl-imidazo[1,2-a]pyridin-3-yl)-heptan-2-one], the half-inhibitory concentration (IC50) stood at 269 nM.

Consider `Cc1ccc(-c2nc3ccc(C)cn3c2CC(=O)c2cccs2)cc1` [drawing 97], for which the IC50 stood at 153 nM.

As for `COc1ccsc1C(=O)Cc1c(-c2ccc(C)cc2)nc2ccc(C)cn12` [drawing 131], the IC50 was 180 nM.

On to `Cc1ccc(-c2nc3ccc(C)cn3c2CC(=O)CC(C)C)cc1` [—CH2CH(CH3)2], for which the IC50 was 820 nM.

The same experiment, now with this note: Table 1b; read-out: IC50 (nM) peripheral.
For the compound `Cc1cc(Cl)cn2c(CC(=O)c3ccoc3)c(-c3ccc(Cl)cc3)nc12`, the IC50 was 350 nM.

As to `Cc1cc(Cl)cn2c(CC(=O)c3cccs3)c(-c3ccc(Cl)cc3)nc12`, the IC50 was 590 nM.

As for `O=C(Cc1c(-c2ccc(Cl)cc2)nc2ccccn12)c1cccs1`, the IC50 was found to be 2600 nM.

In the case of `O=C(Cc1c(-c2ccc(Cl)cc2)nc2ccc(Cl)cn12)c1cccs1`, the IC50 came to 290 nM.

As for `COc1ccc(-c2nc3ccc(C)cn3c2CC(=O)c2cc(C)nn2C)cc1`, the IC50 was 2300 nM.

As for `COc1ccc(-c2nc3ccc(C)cn3c2CC(=O)c2cccs2)cc1`, the IC50 came out at 2400 nM.

Still in this experiment, the particulars now being: Table 2; read-out: IC50 (nM) peripheral.
Consider `Cc1ccc(-c2nc3ccc(C)cn3c2C2CCCNC2=O)cc1` (stereo not shown), for which the IC50 was over 10000 nM.

Turning to `Cc1ccc(-c2nc3ccc(C)cn3c2C2CC=CCN(C)C2=O)cc1` (stereo not shown), the IC50 turned out to be 210 nM.

On to `Cc1ccc(-c2nc3ccc(C)cn3c2C2CCCN(C)C2=O)cc1` (stereo not shown) [drawing 151], for which the IC50 stood at 1240 nM.

`Cc1ccc(-c2nc3ccc(C)cn3c2C2CCCN(C)C2=O)cc1` (stereo not shown) [drawing 155]: the 50% inhibitory concentration (IC50) amounted to 1500 nM.

In the case of `Cc1ccc(-c2nc3ccc(C)cn3c2C2CCCN(C)C2=O)cc1` (stereo not shown) [drawing 156], the IC50 was over 10000 nM.

Another experiment has as its target central benzodiazepine receptors. Briefly: binding to central benzodiazepine receptors, displacement of 3H-flunitrazepam (test of Speth et al.). Conditions: Table 1a.
With `CC(=O)Cc1c(-c2ccc(C)cc2)nc2ccc(C)cn12` [Example 2d, 1-(6-Methyl-2-p-tolyl-imidazo[1,2-a]pyridin-3-yl)-propan-2-one], the IC50 was 439 nM.

`Cc1ccc(-c2nc3ccc(C)cn3c2CC(=O)c2ccc(Cl)cc2)cc1` [Example 3d, 1-(4-Chloro-phenyl)-2-(6-methyl-2-p-tolyl-imidazo[1,2-a]pyridin-3-yl)-ethanone]: the IC50 turned out to be 4060 nM.

Compound `Cc1ccc(-c2nc3ccc(C)cn3c2CC(=O)c2ccccc2)cc1` [Example 4d, 2-(6-Methyl-2-p-tolyl-imidazo[1,2-a]pyridin-3-yl)-1-phenyl-ethanone] came in with an IC50 of 1750 nM.

`CCCCCC(=O)Cc1c(-c2ccc(C)cc2)nc2ccc(C)cn12` [Example 5d, 1-(6-Methyl-2-p-tolyl-imidazo[1,2-a]pyridin-3-yl)-heptan-2-one] had a half-maximal inhibitory concentration (IC50) of 420 nM.

As for `Cc1ccc(-c2nc3ccc(C)cn3c2CC(=O)CC(C)C)cc1` [—CH2CH(CH3)2], the IC50 was over 10000 nM.

Tested on in the next experiment: not listed separately
In words: maze test, which tests anxiety. Conditions: at 10 mg/kg. The experiment is classed as in vivo. The method, then: The compounds of Example 1d (also found in Example 6d), Example 22d, and Example 35d, were also tested in vivo using the maze test, which tests anxiety [Montgomery, J. Comparative and Physiological Psychology 48, 254–60 (1955); Handley et al., Naunyn-Schmiedeberg's Archives of Pharmacology 327, 1–5 (1984); Lister, Psychopharm. 92, 180–85 (1987); Pellow et al., J. Neuroscience Methods 14, 149–67 (1985); Rodgers et al., Ethology and Psychopharmacology, S. J. Cooper and C. A. Hendrie (eds), John Wiley & Sons, Ltd., 9–43 (1994); and Trullas et al., Psychopharm. 111, 323–31 (1993)]. The results of the maze test for these compounds are found in FIGS. 1a, 1b, 2a, 2b, 3a, and 3b. FIGS. 1a, 2a, and 3a are graphs of the Number of Entries in Open Arms vs. mg/kg (dose of administered compound). FIGS. 1b, 2b, and 3b plot the Percent of Time Spent in Open Arms vs. mg/kg (dose of administered compound). […] The results of the maze test are accepted by persons of skill in the art as predictive of therapeutic utility.
For `Cc1ccc(-c2nc3ccc(C)cn3c2CC(=O)c2cccs2)cc1` [Example 1d, 2-(6-Methyl-2-p-tolyl-imidazo[1,2-a]pyridin-3-yl)-1-thiophen-2-yl-ethanone], the “maze test activity (Number of Entries in Open Arms, Percent of Time Spent in Open Arms)” value is “statistically significant activity”.

As for `COc1ccsc1C(=O)Cc1c(-c2ccc(C)cc2)nc2ccc(C)cn12` [Example 22d, 1-(3-Methoxy-thiophen-2-yl)-2-(6-methyl-2-p-tolyl-imidazo[1,2-a]pyridin-3-yl)-ethanone], the “maze test activity (Number of Entries in Open Arms, Percent of Time Spent in Open Arms)” value was “statistically significant activity”.
